These are literature values, as cited in patent publication US7052717B2, “Storage stable thyroxine active drug formulations and methods for their production” (Mylan Pharmaceuticals Inc., priority 2001, dated 2006).

For this data set the following is noted: high humidity, light or high temperature; Won, Pharm. Res. 9(1):131-137, 1992.

Regarding `N[C@@H](Cc1cc(I)c(Oc2cc(I)c(O)c(I)c2)c(I)c1)C(=O)O` [Levothyroxine sodium, levothyroxine sodium], the “stability of drug substance” value is “quite unstable, hygroscopic and degrades rapidly when subjected to high humidity, light or high temperature”.
